This note sets out measurements from US8008464B2, “SSX-4 peptides presented by HLA class II molecules” (Ludwig Institute for Cancer Research Ltd., priority 2004, dated 2011).

The subject of this experiment is circulating CD4+ T cells from melanoma patients and healthy donors. As to the kind of experiment: Intracellular IFN-γ staining of in vitro stimulated CD4+ T cell cultures (flow cytometry). The class given is cell-based, human. The following applies: after second cycle of in vitro stimulation with SSX-4 peptide pool. As for the experimental part:
In vitro stimulation of SSX-4 specific T cells was carried out as described previously (Ayyoub, M., et al., 2004, An immunodominant SSX-2-derived epitope recognized by CD4+ T cells in association with HLA-DR, J Clin Invest, 113:1225-1233). Briefly, 1 to 2×10^6 CD4^+ T cells highly enriched (>90%) from PBMC by magnetic cell sorting using a miniMACS magnetic cell separator device (Miltenyi Biotec, Auburn, Calif., USA) were stimulated with autologous antigen presenting cells in the presence of a pool of partially overlapping peptides spanning the entire SSX-4 protein sequence (2 μM each). Two weeks later the culture was tested using the same peptide pool or individual peptides from the pool, as indicated. CD4^+ T cells secreting IFN-γ in response to peptide stimulation were isolated by cytokine guided magnetic cell sorting using the cytokine secretion detection kit (Miltenyi Biotec) and cloned by limiting dilution culture in the presence of PHA (Sigma, St Louis, Mo., USA), allogeneic irradiated PBMC and rhIL-2 as described (Ayyoub, M., et al., 2004, J Clin Invest, 113:1225-1233). Clones were subsequently expanded by periodic (3-4 weeks) stimulation under the same conditions.
For intracellular cytokine secretion detection, T cells were stimulated in the absence or in the presence of peptides at the indicated dose during 4 h as described previously (Ayyoub, M., et al., 2004, J Clin Invest, 113:1225-1233). One hour after the beginning of the incubation, Brefeldin A (10 μg/ml, Sigma) was added to inhibit cytokine secretion. After incubation, cells were stained with anti-CD4 mAb (Becton Dickinson, San Diego, Calif., USA) for 20 min at 4° C. and fixed using formaldehyde, permeabilized with saponine (Sigma, 0.1% in PBS 5% FCS), stained with anti IFN-γ mAb (BD Pharmingen, San Diego, Calif., USA) and analyzed by flow cytometry. Data analysis was performed using Cell Quest software. IFN-γ secretion was assessed as described (Ayyoub, M., et al., 2004, J Clin Invest, 113:1225-1233). T cells (10,000) were incubated in the absence or in the presence of peptides at the indicated dose in 96-well round-bottom plates in 200 μl/well of medium. Where indicated, APC (EBV-B cells, 10,000/well) preincubated or not with antigen and extensively washed, were added. In some experiments tumor cells were used as APC. Where indicated, tumor cells were transiently transfected with SSX-4 cDNA, cloned into pcDNA3.1 vector, using FUGENE (reagent for transferring nucleic acid inside cells) according to the manufacturer's instructions (Roche Diagnostics, Indianapolis, Ind., USA). After 24 h incubation at 37° C., culture supernatants were collected and the content of IFNI determined by ELISA (BioSource International, Camarillo, Calif., USA).
We analyzed CD4^+ T cell responses to SSX-4 in circulating lymphocytes from 4 melanoma patients with detectable SSX-4 expression in the autologous tumor sample and/or autologous tumor line. CD4^+ T cells were isolated from patients' PBMC by magnetic cell sorting and stimulated in vitro with a pool containing 20 amino acid long peptides overlapping by 10 amino acids and spanning the SSX-4 protein sequence, in the presence of irradiated autologous antigen presenting cells (APC). As internal control, PBMC samples from 4 healthy donors were processed and stimulated under the same conditions. Cultures were tested using the SSX-4 peptide pool for the presence of specific, IFNI secreting CD4^+ T cells, by staining with IFN-γ and CD4-specific monoclonal antibodies (FIG. 1A). After the first cycle of in vitro stimulation (Table 1) no clear responses were detectable in patients' samples, although the proportion of IFN-γ secreting CD4^+ T cells was 2 to 3 fold higher in the presence than in the absence of the peptide pool in the case of 3/4 patients. In contrast, after the second cycle of in vitro stimulation, specific responses to the SSX-4 peptide pool were clearly detected for 3/4 patients. […]
(In general: Flow cytometry measures light scatter and fluorescence of single cells or particles in a stream.)

[1] abbreviates: patient LAU 14, no peptide 0.03.
Setting [2] is: patient LAU 97, no peptide 0.02.

For the substance “SSX-4 1-20: 20 amino acid long peptide of the overlapping pool, SSX-4 residues 1-20 (MNGDDAFARRPRDDAQISEK; UniProt O60224 1-20, looked up, fragment)”, the “percent of CD4+ IFN-γ secreting cells” value is, setting by setting: (patient 331, no peptide 0.03) less than 0.01%; under setting [1], 0.07%; under setting [2], less than 0.01%.
On to “SSX-4 11-30: 20 amino acid long peptide of the overlapping pool, SSX-4 residues 11-30 (PRDDAQISEKLRKAFDDIAK; UniProt O60224 11-30, looked up, fragment)”, for which the “percent of CD4+ IFN-γ secreting cells” value by setting is: (patient 331, no peptide 0.03) 0.02%; under setting [1], less than 0.01%; under setting [2], less than 0.01%.
As to “SSX-4 21-40: 20 amino acid long peptide of the overlapping pool, SSX-4 residues 21-40 (LRKAFDDIAKYFSKKEWEKM; UniProt O60224 21-40, looked up, fragment)”, the “percent of CD4+ IFN-γ secreting cells” value was 0.02% (patient 331, no peptide 0.03); 0.04% under setting [1]; less than 0.01% under setting [2].
For “SSX-4 71-90: 20 amino acid long peptide of the overlapping pool, SSX-4 residues 71-90 (MRSKRAADFHGNDFGNDRNH; UniProt O60224 71-90, looked up, fragment)”, in that order: 0.05%, 0.03% and less than 0.01%.
In the case of “SSX-4 81-100: 20 amino acid long peptide of the overlapping pool, SSX-4 residues 81-100 (GNDFGNDRNHRNQVERPQMT; UniProt O60224 81-100, looked up, fragment)”, the “percent of CD4+ IFN-γ secreting cells” value is recorded as 0.02% (patient 331, no peptide 0.03); less than 0.01% under setting [1]; 0.02% under setting [2].
Consider “SSX-4 91-110: 20 amino acid long peptide of the overlapping pool, SSX-4 residues 91-110 (RNQVERPQMTFGSLQRIFPK; UniProt O60224 91-110, looked up, fragment)”, for which the “percent of CD4+ IFN-γ secreting cells” value was 0.02% (patient 331, no peptide 0.03); 0.03% under setting [1]; less than 0.01% under setting [2].
For “SSX-4 111-130: 20 amino acid long peptide of the overlapping pool, SSX-4 residues 111-130 (IMPKKPAEEENGLKEVPEAS; UniProt O60224 111-130, looked up, fragment)”, in that order: 0.01%, 0.01% and less than 0.01%.
On the same counts, the results for “SSX-4 121-140: 20 amino acid long peptide of the overlapping pool, SSX-4 residues 121-140 (NGLKEVPEASGPQNDGKQLC; UniProt O60224 121-140, looked up, fragment)” are 0.01%, less than 0.01% and less than 0.01%.
In the case of “SSX-4 131-150: 20 amino acid long peptide of the overlapping pool, SSX-4 residues 131-150 (GPQNDGKQLCPPGNPSTLEK; UniProt O60224 131-150, looked up, fragment)”, the “percent of CD4+ IFN-γ secreting cells” value is given as 0.02% (patient 331, no peptide 0.03); 0.01% under setting [1]; less than 0.01% under setting [2].
For “SSX-4 141-160: 20 amino acid long peptide of the overlapping pool, SSX-4 residues 141-160 (PPGNPSTLEKINKTSGPKRG; UniProt O60224 141-160, looked up, fragment)”, in that order: 0.01%, 0.03% and less than 0.01%.
As to “SSX-4 171-188: C-terminal peptide of the overlapping pool, SSX-4 residues 171-188 (RKQLVVYEEISDPEEDDE; UniProt O60224 171-188, looked up, fragment)”, the “percent of CD4+ IFN-γ secreting cells” value is listed as 0.02% (patient 331, no peptide 0.03); less than 0.01% under setting [1]; 0.01% under setting [2].
